Laboratory results: paper PMC12508057, “Discovery of ETI41 and ETI60: novel selective endosomal Toll-like receptor inhibitors for the treatment of autoimmune diseases” (Experimental & Molecular Medicine, 2025)
Read-outs that look alike come from different tables or passages of the source.

Legend:
human TLR7 = target: T1, human TLR7 (Homo sapiens, UniProt Q9NYK1); assay: SPR binding to TLR7; conditions: for SPR binding to TLR7: neutral pH 7.4 (early endosome)
T1 construct: Fc; purchased R&D Systems
T1 sequence (Q9NYK1 27-839 limits assumed): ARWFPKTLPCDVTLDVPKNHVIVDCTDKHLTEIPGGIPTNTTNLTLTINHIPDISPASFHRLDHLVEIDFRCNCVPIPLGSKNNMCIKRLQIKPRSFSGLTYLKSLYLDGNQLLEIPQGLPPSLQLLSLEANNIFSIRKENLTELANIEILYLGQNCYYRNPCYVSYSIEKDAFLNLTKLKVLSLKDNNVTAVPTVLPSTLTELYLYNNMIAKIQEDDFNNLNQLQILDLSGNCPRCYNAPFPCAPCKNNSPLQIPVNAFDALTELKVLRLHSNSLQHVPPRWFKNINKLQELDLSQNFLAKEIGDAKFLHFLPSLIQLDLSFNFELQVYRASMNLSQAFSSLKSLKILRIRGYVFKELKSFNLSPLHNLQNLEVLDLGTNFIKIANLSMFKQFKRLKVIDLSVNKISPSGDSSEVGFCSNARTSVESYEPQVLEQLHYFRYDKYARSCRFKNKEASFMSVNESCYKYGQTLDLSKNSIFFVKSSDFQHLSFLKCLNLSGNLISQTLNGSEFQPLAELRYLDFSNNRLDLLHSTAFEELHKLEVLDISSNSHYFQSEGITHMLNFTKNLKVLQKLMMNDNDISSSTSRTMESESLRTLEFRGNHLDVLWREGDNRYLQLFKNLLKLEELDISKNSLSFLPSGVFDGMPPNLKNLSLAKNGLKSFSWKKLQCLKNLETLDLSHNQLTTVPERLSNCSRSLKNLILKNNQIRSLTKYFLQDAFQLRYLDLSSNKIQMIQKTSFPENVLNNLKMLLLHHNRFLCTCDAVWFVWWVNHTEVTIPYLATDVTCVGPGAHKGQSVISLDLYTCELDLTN
Protocol: Surface plasmon resonance (SPR) analysis was conducted using an SR7500DC SPR System (Reichert) with a CMDH chip for human TLR7 and murine TLR9 (R&D Systems) and a Biacore T200 platform (Cytiva) with a CM5 chip for TLR9–ODN binding. The running buffer contained 0.5% DMSO and phosphate-buffered saline, and 50 mM NaOH was used for regeneration. ETI series compounds were serially diluted from 500 μM and tested for binding affinity. Binding curves were analyzed using Scrubber2 and Biacore T200 evaluation softwares. The dissociation constants (KD) were calculated as KD = kd/ka.
SPR confirmed the binding mechanisms of ETI41 and ETI60 with TLR7 and TLR9, respectively, under three conditions: (a) early endosome (pH 7.4), (b) late endosome without CpG (pH 5.5) and (c) late endosome with CpG (pH 5.5). (a) Both ETI41 and ETI60 were measured for parameters indicating binding affinity, including the KD value presented in Table 3, and were further analyzed under conditions (b) and (c), depending on the presence or absence of ligand, to explain the binding mechanism occurring in TLR9.

[1] = tested on: IMQ-induced (TLR7) gene expression in RAW 264.7 cells; assay: 3' mRNA sequencing of IMQ-stimulated RAW 264.7 cells; type: cell-based, mouse; conditions: for Expression of IMQ-induced inflammation-associated genes: RAW 264.7, 2 and 4 h; for Differentially expressed genes (DEGs) / Downregulated DEGs / Upregulated DEGs: RAW 264.7, IMQ-stimulated
Protocol: RNA quality was assessed using a TapeStation 4000 system (Agilent Technologies). Libraries were prepared using a QuantSeq 3 mRNA-Seq Library Prep Kit FWD (Lexogen) and sequenced using a NextSeq 550 System (Illumina). Sequences were trimmed using BBDuk and aligned with Bowtie2, and the reads were counted using Bedtools[21]–[23]. Data were normalized using edgeR software (Ebiogen) and analyzed for gene function using the Database for Annotation, Visualization, and Integrated Discovery) and for pathway analysis using KEGG Mapper[24],[25]. RNA-seq data were deposited in the Gene Expression Omnibus database under accession number GSE255890.
Fig. 2 ETI41 and ETI60 inhibit TLR7- and TLR9-dependent downstream signaling. a, b Western blot analysis was used to quantify the protein levels of phosphorylated p-ERK, p-JNK, p38, Iκ-Bα and p65. RAW 264.7 cells were treated with 5 μM or 10 μM of ETI41 or ETI60, followed by exposure to IMQ (2 μg/ml) for 20 or 30 min (a) and ODN2395 (1 μM) for 40 or 50 min (b) respectively. β-Actin served as a loading control for the cytosol, while lamin A/C was utilized as a loading control for the nucleus. c Protein levels of IRF7 were measured after treatment with 5 μM of ETI41 or ETI60, followed by treatment with ODN2395 (1 μM) for 6 or 8 h. d BMDC cells from ex vivo were used to analyze mRNA expression levels of IL-12p40, IFN-β and CD40. Cells were pretreated with ETI41 (0.2 and 1 μM), followed by treatment with ODN2395 (1 μM) for 3 h. All experiments were independently conducted three times. Statistical differences between the induced and other cases were analyzed and verified using a one-tailed Student’s t-test (*P < 0.05, **P < 0.01, ***P < 0.001). e–g The TLR7 agonist IMQ (1 μM) was used in 3’ RNA-seq analysis to induce signaling associated with immune responses in RAW 264.7 cells. […] (e–g) depict changes in gene expression categories without pretreatment (e) after pretreatment with ETI41 (f) or after pretreatment with ETI60 (g) followed by IMQ stimulation. h Heatmaps depicting gene expression patterns within the inflammation and immune response categories (fold change >2.5, P < 0.05) of ETI41 or ETI60, dividing the time after IMQ treatment into 0, 2 and 4 h, respectively. […]

| Compound | Kd (human TLR7) [mM] | kd (human TLR7; Fc-TLR7, pH 7.4) [s⁻¹] | SPR binding to TLR7 (human TLR7) | kon (human TLR7; pH 7.4, read-out: ka) [M⁻¹ s⁻¹] | Expression of IMQ-induced inflammation-associated genes [1] | Differentially expressed genes (DEGs) [1] | Downregulated DEGs [1] | Upregulated DEGs [1] | Kd (human TLR7; Fc-TLR7, pH 7.4, read-out: KD) [mM] | kon (human TLR7; Fc-TLR7, pH 7.4, read-out: ka) [M⁻¹ s⁻¹] |
| --- | --- | --- | --- | --- | --- | --- | --- | --- | --- | --- |
| Cc1cc2c(N)c3c(nc2n1CCCN(C)C)CCCCCC3 [ETI41] | 0.54 | 0.21 | clear binding affinity | 400 | markedly reduced | 509 | 296 | 213 | – | – |
| COc1ccc2c3c(N)c4c(nc3n(CCCN(C)C)c2c1)CCCC4 [ETI60] | – | 0.124 | clear binding affinity | – | markedly reduced | 727 | 380 | 347 | 6 | 20 |
